Legend:
HL-60 cells [1] = test: HL-60 responses to selected compounds at a range of concentrations; assay type: cell-based, human; details: for activity at 30 µM / activity at 100 µM / activity at 330 µM / activity at 1000 µM / activity at 3300 µM / activity at 10000 µM / activity at 15000 µM / activity at 20000 µM: Homo sapiens, HL-60, read-out: HL-60 Cell Responses to Selected Compounds from PM1 and PM2
Experimental: In this Example, methods for testing unattached cells for their ability to use various concentrations of selected carbon sources are described. The carbon sources used in this Example were identified by the methods disclosed in Example 27. Similarly, HL-60 cells were cultured as described in Example 27.
After washing, HL-60 cells were resuspended in DME-R. An aliquot of the cell suspension was counted by trypan blue exclusion and the cell density was adjusted to 6.67×10^5/mL. Fifty μL of DME-R were added to each well of the appropriate number of half area, 96-well plates, followed by 23 μL of the appropriate dilution of each test energy source. Stocks of 133 mM of each test chemical were prepared in tissue culture grade water, sterile filtered, and dilutions were prepared in a master plate so that, upon dilution in a total volume of 150 μL, the final concentrations would be 0.033 to 20 mM. Negative control wells received 23 μL of tissue culture grade water. The cells were plated at a volume of 75 μL/well, giving a final cell density of 5×10^4/well. For each plate containing energy sources and cells, a second, control plate containing only energy sources was prepared. Plates were incubated at 5% CO2, 90-100% humidity, and 37° C. for 24 hours prior to addition of the MTS/MPMS colorometric reagent (7.5 μL/well). The color formed in each well after an additional 24 hour incubation period, was measured on a plate reader at 490 nm with a reference wavelength of 650 nm. OD values from the control plate were subtracted from the OD values obtained with cells prior to normalizing the data to % negative control (cells without added energy source).

HL-60 cells [2] = test: Effect of 1 mM chloramphenicol on HL-60 energy utilization; assay type: cell-based, human; details: for Effect of 1 mM chloramphenicol on HL-60 Energy Utilization: negative control without chloramphenicol
Experimental: In this Example, methods for testing antimicrobial-induced modulation in growth of a cell are described. The antimicrobial selected for this Example is chloramphenicol. However, this application is not intended to be limited to the use of chloramphenicol, translation inhibitors or even antibiotics. HL-60 cells were cultured as described in Example 27.
After washing, HL-60 cells were resuspended in DME-R. An aliquot of the cell suspension was counted by trypan blue exclusion and the cell density was adjusted to 6.67×10^5[…]. Fifty μL of DME-R containing 3 mM chloramphenicol were added to each well of the appropriate number of half area, 96-well plates, followed by 25 μL of the appropriate dilution of each test energy source. Stocks of 133 mM of each test chemical were prepared in tissue culture grade water, sterile filtered, and dilutions were prepared in a master plate so that, upon dilution in a total volume of 150 μL, the final concentrations would be 0.033 to 20 mM. Negative control wells received 25 μL of tissue culture grade water. The cells were plated at a volume of 75 μL/well, giving a final cell density of 5×10^4/well. For each plate containing energy sources and cells, a second, control plate containing only energy sources was prepared. Plates were incubated at 5% CO2, 90-100% humidity, and 37° C. for 24 hours prior to addition of the MTS/MPMS colorimetric reagent (7.5 μL/well). The color formed in each well 24 hours after addition of the colorimetric reagent, was measured with a plate reader at 490 nm with a reference wavelength of 650 nm. OD values from the control plate were subtracted from the OD values obtained with cells prior to normalizing the data to % negative control.
Data shown in Table 25 are expressed as percent negative control without chloramphenicol. […] Chloramphenicol clearly has a different effect on the cells than citrate shown in Example 33.

[3] = energy source 0.03 mM with 1 mM chloramphenicol
[4] = energy source 0.10 mM with 1 mM chloramphenicol
[5] = energy source 0.33 mM with 1 mM chloramphenicol
[6] = energy source 1.00 mM with 1 mM chloramphenicol
[7] = energy source 3.3 mM with 1 mM chloramphenicol
[8] = energy source 10 mM with 1 mM chloramphenicol
[9] = energy source 15 mM with 1 mM chloramphenicol
[10] = energy source 20 mM with 1 mM chloramphenicol

SMILES | Effect of 1 mM chloramphenicol on HL-60 Energy Utilization (HL-60 cells [2]; [3]) | Effect of 1 mM chloramphenicol on HL-60 Energy Utilization (HL-60 cells [2]; [4]) | Effect of 1 mM chloramphenicol on HL-60 Energy Utilization (HL-60 cells [2]; [5]) | Effect of 1 mM chloramphenicol on HL-60 Energy Utilization (HL-60 cells [2]; [6]) | Effect of 1 mM chloramphenicol on HL-60 Energy Utilization (HL-60 cells [2]; [7]) | Effect of 1 mM chloramphenicol on HL-60 Energy Utilization (HL-60 cells [2]; [8]) | Effect of 1 mM chloramphenicol on HL-60 Energy Utilization (HL-60 cells [2]; [9]) | Effect of 1 mM chloramphenicol on HL-60 Energy Utilization (HL-60 cells [2]; [10]) | activity at 30 µM (HL-60 cells [1]; Conc. 0.03 mM) [%] | activity at 100 µM (HL-60 cells [1]; Conc. 0.10 mM) [%] | activity at 330 µM (HL-60 cells [1]; Conc. 0.33 mM) [%] | activity at 1000 µM (HL-60 cells [1]; Conc. 1.00 mM) [%] | activity at 3300 µM (HL-60 cells [1]; Conc. 3.3 mM) [%] | activity at 10000 µM (HL-60 cells [1]; Conc. 10 mM) [%] | activity at 15000 µM (HL-60 cells [1]; Conc. 15 mM) [%] | activity at 20000 µM (HL-60 cells [1]; Conc. 20 mM) [%] | further results
O=C1O[C@H]([C@@H](O)CO)[C@@H](O)[C@@H]1O [L-gal acid g-lactone] | −2.0 % of negative control | −8.4 % of negative control | 4.3 % of negative control | −13.9 % of negative control | 3.7 % of negative control | 14.5 % of negative control | 18.0 % of negative control | 2.4 % of negative control | – | – | – | – | – | – | – | – | HL-60 Cell Responses to Selected Compounds from PM1 and PM2 (HL-60 cells [1]; Conc. 0.03 mM): 129.3 % of negative control; HL-60 Cell Responses to Selected Compounds from PM1 and PM2 (HL-60 cells [1]; Conc. 0.10 mM): 132.3 % of negative control; HL-60 Cell Responses to Selected Compounds from PM1 and PM2 (HL-60 cells [1]; Conc. 0.33 mM): 132.4 % of negative control; HL-60 Cell Responses to Selected Compounds from PM1 and PM2 (HL-60 cells [1]; Conc. 1.00 mM): 145.0 % of negative control; HL-60 Cell Responses to Selected Compounds from PM1 and PM2 (HL-60 cells [1]; Conc. 3.3 mM): 141.5 % of negative control; HL-60 Cell Responses to Selected Compounds from PM1 and PM2 (HL-60 cells [1]; Conc. 10 mM): 122.8 % of negative control; HL-60 Cell Responses to Selected Compounds from PM1 and PM2 (HL-60 cells [1]; Conc. 15 mM): 125.0 % of negative control; HL-60 Cell Responses to Selected Compounds from PM1 and PM2 (HL-60 cells [1]; Conc. 20 mM): 100.4 % of negative control
NC(=O)CC[C@H](N)C(=O)O [L-glutamine] | 33.7 % of negative control | 39.8 % of negative control | 60.6 % of negative control | 69.0 % of negative control | 85.0 % of negative control | 90.0 % of negative control | 89.0 % of negative control | 82.1 % of negative control | 147 | 161 | 162 | 168 | 161 | 151 | 127 | 92 | response in words (HL-60 cells [1]; 0.033 to 20 mM): strongly utilized, even at very low concentrations; protective effect of energy source (HL-60 cells [2]; in the presence of 1 mM chloramphenicol): limit the effect to maintenance of the cells at the level seen with no chloramphenicol and no added energy source
N[C@@H](Cc1c[nH]cn1)C(=O)O [L-histidine] | 6.9 % of negative control | 4.3 % of negative control | 7.3 % of negative control | 7.2 % of negative control | 13.9 % of negative control | 19.1 % of negative control | 13.1 % of negative control | 8.4 % of negative control | 123 | 121 | 128 | 135 | 146 | 120 | 123 | 95 | –
CC(C)[C@H](N)C(=O)O [L-valine] | 6.6 % of negative control | 4.3 % of negative control | 4.0 % of negative control | 3.2 % of negative control | 4.3 % of negative control | 5.5 % of negative control | 2.6 % of negative control | 7.5 % of negative control | 117 | 137 | 134 | 135 | 133 | 125 | 122 | 112 | –
